Data as given in patent publication US20250228239A1, “MOLECULES HAVING PESTICIDAL UTILITY, AND INTERMEDIATES, COMPOSITIONS, AND PROCESSES, RELATED THERETO” (priority 2024, published 2025).
Like-named read-outs stand apart in the source and are kept apart here.

Legend:
[1] = tested on: Beet Armyworm (Spodoptera exigua, LAPHEG); test: Bioassays on Beet Armyworm (BAW), 128-well diet tray assay; assay type: in vivo; details: Spodoptera exigua
Summary of the method: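 One to five second-instar larvae per well on artificial diet surface-treated with 50 μg/cm^2 test molecule (applied in 90:10 acetone-water, dried), eight wells per compound. Trays held vented at 25° C., 14:10 light-dark for five to seven days; percent mortality averaged over the eight wells.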

[2] = tested on: Cabbage Looper (Trichoplusia ni, TRIPNI); test: Bioassays on Cabbage Looper (CL), 128-well diet tray assay; assay type: in vivo; details: Trichoplusia ni
Summary of the method: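 One to five second-instar larvae per well on artificial diet surface-treated with 50 μg/cm^2 test molecule (applied in 90:10 acetone-water, dried). Held 5–7 days at 25° C, 14:10 light-dark; percent mortality recorded per well and averaged over eight wells.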

[3] = Beet Armyworm, Table ABC / ABC-DP rating, read-out: BAW rating
[4] = Cabbage Looper, Table ABC / ABC-DP rating, read-out: CL rating
[5] = Table ABC: Biological Results, species BAW, read-out: BAW
[6] = Table ABC: Biological Results, species CL, read-out: CL
[7] = Beet Armyworm, rating class, read-out: BAW
[8] = Cabbage Looper, rating class, read-out: CL

Row | Compound | pest or weed control at 50 µg/cm2 [1, 5] [%] | pest or weed control at 50 µg/cm2 [2, 6] [%] | pest or weed control at 50 µg/cm2 [1, 7] [%] | pest or weed control at 50 µg/cm2 [2, 8] [%] | further results
1 | O=C(CC(=O)C(F)(F)F)Nc1c(F)ccc(NC(=O)c2cc(NC(=O)[C@H]3[C@H](c4ccc(F)c(C(F)(F)F)c4)C3(Cl)Cl)ccc2Cl)c1F [F1840, 2-Chloro-5-((1R,3R)-2,2-dichloro-3-(4-fluoro-3-(trifluoromethyl)phenyl)cyclopropane-1-carboxamido)-N-(2,4-difluoro-3-(4,4,4-trifluoro-3-oxobutanamido)phenyl)benzamide] | – | – | – | – | pest or weed control at 50 µg/cm2 [1, 3]: 50 to 100%; pest or weed control at 50 µg/cm2 [2, 4]: 50 to 100%
2 | O=C(Nc1ccc(F)c(NC(=O)C(F)F)c1F)c1cc(NC(=O)[C@H]2[C@H](c3ccc(Cl)c(Cl)c3)C2(Cl)Cl)cc(F)c1Cl [F1287, 2-Chloro-5-((1R,3R)-2,2-dichloro-3-(3,4-dichlorophenyl)cyclopropane-1-carboxamido)-N-(3-(2,2-difluoroacetamido)-2,4-difluorophenyl)-3-fluorobenzamide] | 50 to 100 | 50 to 100 | – | – | –
3 | Cc1cc(NC(=O)[C@H]2[C@H](c3ccc(F)c(C(F)(F)F)c3)C2(Cl)Cl)cc(C(=O)Nc2cc(NC(=O)C(F)(F)F)c(F)cc2F)c1Cl [F1501, 2-Chloro-5-((1R,3R)-2,2-dichloro-3-(4-fluoro-3-(trifluoromethyl)phenyl)cyclopropane-1-carboxamido)-N-(2,4-difluoro-5-(2,2,2-trifluoroacetamido)phenyl)-3-methylbenzamide] | – | – | 50 to 100 | 50 to 100 | –
4 | O=C(Nc1cc(NC(=O)C(F)(F)F)c(F)cc1F)c1cc(NC(=O)[C@H]2[C@H](c3ccc(F)c(C(F)(F)F)c3)C2(Cl)Cl)cc(F)c1Cl [F1407, 2-Chloro-5-((1R,3R)-2,2-dichloro-3-(4-fluoro-3-(trifluoromethyl)phenyl)cyclopropane-1-carboxamido)-N-(2,4-difluoro-5-(2,2,2-trifluoroacetamido)phenyl)-3-fluorobenzamide] | – | – | 50 to 100 | 50 to 100 | –
5 | CC(C)(C)OC(=O)Nc1c(F)ccc(NC(=O)c2cc(NC(=O)[C@H]3[C@H](c4cc(F)cc(C(F)(F)F)c4)C3(Cl)Cl)ccc2Cl)c1F (relative stereo) [F1092, trans-tert-Butyl-(3-(2-chloro-5-(2,2-dichloro-3-(3-fluoro-5-(trifluoromethyl)phenyl)cyclopropane-1-carboxamido)benzamido)-2,6-difluorophenyl)carbamate] | 50 to 100 | 50 to 100 | – | – | –
6 | Nc1c(F)ccc(NC(=O)c2cc(NC(=O)C3C(c4cc(F)cc(Br)c4F)C3(Cl)Cl)ccc2Cl)c1F (stereo not drawn) [F1097, cis-(3-Amino-2,4-difluorophenyl)-5-(3-(3-bromo-2,5-difluorophenyl)-2,2-dichlorocyclopropane-1-carboxamido)-2-chlorobenzamide] | 50 to 100 | 50 to 100 | – | – | –
7 | O=C(Nc1ccc(F)c(NC(=O)C(F)F)c1F)c1cc(NC(=O)[C@H]2[C@H](c3ccc(F)c(C(F)(F)F)c3)C2(Cl)Cl)cc(F)c1F [F1571, 5-((1R,3R)-2,2-Dichloro-3-(4-fluoro-3-(trifluoromethyl)phenyl)cyclopropane-1-carboxamido)-N-(3-(2,2-difluoroacetamido)-2,4-difluorophenyl)-2,3-difluorobenzamide] | – | – | 50 to 100 | 50 to 100 | –
8 | O=C(Nc1cc(NC(=O)C(F)(F)F)c(F)cc1F)c1cc(NC(=O)[C@H]2[C@H](c3cc(Cl)c(Cl)c(Cl)c3)C2(Cl)Cl)cc(F)c1F [F1579, 5-((1R,3R)-2,2-Dichloro-3-(3,4,5-trichlorophenyl)cyclopropane-1-carboxamido)-N-(2,4-difluoro-5-(2,2,2-trifluoroacetamido)phenyl)-2,3-difluorobenzamide] | – | – | 50 to 100 | 50 to 100 | –
9 | Cc1cc(NC(=O)[C@H]2[C@H](c3ccc(Cl)c(Cl)c3)C2(Cl)Cl)cc(C(=O)Nc2cc(NC(=O)C(F)(F)F)c(F)cc2F)c1Cl [F1497, 2-Chloro-5-((1R,3R)-2,2-dichloro-3-(3,4-dichlorophenyl)cyclopropane-1-carboxamido)-N-(2,4-difluoro-5-(2,2,2-trifluoroacetamido)phenyl)-3-methylbenzamide] | – | – | 50 to 100 | 50 to 100 | –
10 | Cc1cc(NC(=O)[C@H]2[C@H](c3cc(Cl)c(Cl)c(Cl)c3)C2(Cl)Cl)cc(C(=O)Nc2ccc(F)c(N)c2F)c1Cl [F1449, N-(3-Amino-2,4-difluorophenyl)-2-chloro-5-((1R,3R)-2,2-dichloro-3-(3,4,5-trichlorophenyl)cyclopropane-1-carboxamido)-3-methylbenzamide] | – | – | 50 to 100 | 50 to 100 | –
11 | CC(C)CC(=O)Nc1c(F)ccc(NC(=O)c2cc(NC(=O)[C@H]3[C@H](c4ccc(F)c(C(F)(F)F)c4)C3(Cl)Cl)ccc2Cl)c1F [F1845, 2-Chloro-5-((1R,3R)-2,2-dichloro-3-(4-fluoro-3-(trifluoromethyl)phenyl)cyclopropane-1-carboxamido)-N-(2,4-difluoro-3-(3-methylbutanamido)phenyl)benzamide] | – | – | – | – | pest or weed control at 50 µg/cm2 [1, 3]: 50 to 100%; pest or weed control at 50 µg/cm2 [2, 4]: 50 to 100%
12 | O=C(Nc1ccc(F)cc1F)c1c(F)ccc(NC(=O)[C@H]2[C@H](c3ccc(F)c(Cl)c3)C2(Cl)Cl)c1F (relative stereo) [F1086, trans-3-(2,2-Dichloro-3-(3-chloro-4-fluorophenyl)cyclopropane-1-carboxamido)-N-(2,4-difluorophenyl)-2,6-difluorobenzamide] | 50 to 100 | 50 to 100 | – | – | –
13 | O=C(CC1CC1)NNC(=O)c1cc(NC(=O)[C@H]2[C@H](c3cc(Cl)cc(Cl)c3)C2(Cl)Cl)ccc1Cl (relative stereo) [F2528, trans-2,2-Dichloro-N-(4-chloro-3-(2-(2-cyclopropylacetyl)hydrazine-1-carbonyl)phenyl)-3-(3,5-dichlorophenyl)cyclopropane-1-carboxamide] | – | – | – | – | pest or weed control at 50 µg/cm2 [1, 3]: 50 to 100%; pest or weed control at 50 µg/cm2 [2, 4]: 50 to 100%
14 | C=CCC(=O)Nc1ccc(F)c(NC(=O)c2cc(NC(=O)[C@H]3[C@H](c4cc(Cl)c(Cl)c(Cl)c4)C3(Cl)Cl)cc(F)c2F)c1F [F1875, N-(3-(But-3-enamido)-2,6-difluorophenyl)-5-((1R,3R)-2,2-dichloro-3-(3,4,5-trichlorophenyl)cyclopropane-1-carboxamido)-2,3-difluorobenzamide] | – | – | – | – | pest or weed control at 50 µg/cm2 [1, 3]: 50 to 100%; pest or weed control at 50 µg/cm2 [2, 4]: 50 to 100%
15 | Nc1c(F)ccc(NC(=O)c2cc(NC(=O)[C@H]3[C@H](c4ccc(Cl)c(C(F)(F)F)c4)C3(Cl)Cl)ccc2Cl)c1F [F1631, N-(3-Amino-2,4-difluorophenyl)-2-chloro-5-((1R,3R)-2,2-dichloro-3-(4-chloro-3-(trifluoromethyl)phenyl)cyclopropane-1-carboxamido)benzamide] | – | – | 50 to 100 | 50 to 100 | –
16 | O=C(Nc1ccc(F)c(NC(=O)[C@@H]2CCCN2)c1F)c1cc(NC(=O)[C@H]2[C@H](c3ccc(Cl)c(Cl)c3)C2(Cl)Cl)ccc1Cl [F1664, (S)—N-(3-(2-chloro-5-((1R,3R)-2,2-dichloro-3-(3,4-dichlorophenyl)cyclopropane-1-carboxamido)benzamido)-2,6-difluorophenyl)pyrrolidine-2-carboxamide] | – | – | 50 to 100 | 50 to 100 | –
17 | Cc1cc([C@H]2[C@H](C(=O)Nc3ccc(Cl)c(C(=O)Nc4ccc(F)c(N)c4F)c3)C2(Cl)Cl)cc(C(F)(F)F)c1F (relative stereo) [F1068, trans-N-(3-Amino-2,4-difluorophenyl)-2-chloro-5-(2,2-dichloro-3-(4-fluoro-3-methyl-5-(trifluoromethyl)phenyl)cyclopropane-1-carboxamido)benzamide] | 50 to 100 | 50 to 100 | – | – | –
18 | Cc1cc(NCc2ccc(C(F)(F)F)cc2)ccc1NC(=O)c1cc(NC(=O)[C@H]2[C@H](c3cc(Cl)cc(Cl)c3)C2(Cl)Cl)ccc1Cl (relative stereo) [F1165, trans-2-Chloro-5-(2,2-dichloro-3-(3,5-dichlorophenyl)cyclopropane-1-carboxamido)-N-(2-methyl-4-((4-(trifluoromethyl)benzyl)amino)phenyl)benzamide] | 50 to 100 | 50 to 100 | – | – | –
19 | N#CCC(=O)Nc1c(F)ccc(NC(=O)c2cc(NC(=O)[C@H]3[C@H](c4cc(Cl)c(Cl)c(Cl)c4)C3(Cl)Cl)ccc2Cl)c1F [F1650, 2-Chloro-N-(3-(2-cyanoacetamido)-2,4-difluorophenyl)-5-((1R,3R)-2,2-dichloro-3-(3,4,5-trichlorophenyl)cyclopropane-1-carboxamido)benzamide] | – | – | 50 to 100 | 50 to 100 | –
20 | Cc1cc(NC(=O)[C@H]2[C@H](c3ccc(F)c(C(F)(F)F)c3)C2(Cl)Cl)cc(C(=O)Nc2cc(N)c(F)cc2F)c1Cl [F1478, N-(5-Amino-2,4-difluorophenyl)-2-chloro-5-((1R,3R)-2,2-dichloro-3-(4-fluoro-3-(trifluoromethyl)phenyl)cyclopropane-1-carboxamido)-3-methylbenzamide] | – | – | 50 to 100 | 50 to 100 | –
21 | Nc1c(Cl)cc(NC(=O)c2cc(NC(=O)[C@H]3[C@H](c4ccc(F)c(Cl)c4)C3(Cl)Cl)ccc2Cl)cc1Cl (relative stereo) [F1367, trans-N-(4-Amino-3,5-dichlorophenyl)-2-chloro-5-(2,2-dichloro-3-(3-chloro-4-fluorophenyl)cyclopropane-1-carboxamido)benzamide] | 50 to 100 | 50 to 100 | – | – | –
